Source: patent US9695168B2 (Incyte Corporation, priority 2014, dated 2017)

Target: LSD1 (Homo sapiens (Human), UniProt O60341)
Experiment: LSD1 Histone Demethylase Biochemical Assay (LANCE LSD1/KDM1A demethylase assay)
Settings: 1 nM LSD-1 enzyme, 1 hour preincubation at 25° C., 0.4 μM Biotin-labeled Histone H3 peptide substrate
Protocol: LSD1 Histone Demethylase Biochemical Assay
LANCE LSD1/KDM1A demethylase assay-10 μL of 1 nM LSD-1 enzyme (ENZO BML-SE544-0050) in the assay buffer (50 mM Tris, pH 7.5, 0.01% Tween-20, 25 mM NaCl, 5 mM DTT) were preincubated for 1 hour at 25° C. with 0.8 μL compound/DMSO dotted in black 384 well polystyrene plates. […] Reactions were stopped by addition of 10 μL 1× LANCE Detection Buffer (PerkinElmer CR97-100) supplemented with 1.5 nM Eu-anti-unmodified H3K4 Antibody (PerkinElmer TRF0404), and 225 nM LANCE Ultra Streptavidin (PerkinElmer TRF102) along with 0.9 mM Tranylcypromine-HCl (Millipore 616431). After stopping the reactions plates were incubated for 30 minutes and read on a PHERAstar FS plate reader (BMG Labtech).

Row | Structure (SMILES) | IC50 [nM]
1 | CN1CCC[C@@H](COc2nc(-c3ccc(C#N)cc3)c(-c3ccc4ncccc4c3)n3cncc23)C1 [Example 31, 4-(8-{[(3R)-1-methylpiperidin-3-yl]methoxy}-5-quinolin-6-ylimidazo[1,5-a]pyrazin-6-yl)benzonitrile] | 50 to 100
2 | Cc1nn(C)c2ccc(-c3c(-c4ccc(C#N)cc4)nc(OC[C@@H]4CCCN(C)C4)c4cncn34)cc12 [Example 32, 4-(5-(1,3-dimethyl-1H-indazol-5-yl)-8-{[(3R)-1-methylpiperidin-3-yl]methoxy}imidazo[1,5-a]pyrazin-6-yl)benzonitrile] | 50 to 100
3 | CN1CCC[C@@H](COc2nc(-c3ccc(C#N)cc3)c(-c3ccc4ncsc4c3)n3cncc23)C1 [Example 33, 4-(5-(1,3-benzothiazol-6-yl)-8-{[(3R)-1-methylpiperidin-3-yl]methoxy}imidazo[1,5-a]pyrazin-6-yl)benzonitrile] | 50 to 100
4 | CC(O)CN1CCC[C@@H](COc2nc(-c3ccc(C#N)cc3)c(-c3cnc4c(cnn4C)c3)n3cncc23)C1 (stereo partly drawn) [Example 39, 4-[8-{[(3R)-1-(2-hydroxypropyl)piperidin-3-yl]methoxy}-5-(1-methyl-1H-pyrazolo[3,4-b]pyridin-5-yl)imidazo[1,5-a]pyrazin-6-yl]benzonitrile] | 100 to 500
5 | Cn1ncc2cc(-c3c(-c4ccc(C#N)cc4)nc(OC[C@@H]4CCCN(CC(C)(C)O)C4)c4cncn34)cnc21 [Example 41, 4-[8-{[(3R)-1-(2-hydroxy-2-methylpropyl)piperidin-3-yl]methoxy}-5-(1-methyl-1H-pyrazolo[3,4-b]pyridin-5-yl)imidazo[1,5-a]pyrazin-6-yl]benzonitrile] | 50 to 100
6 | COC(=O)N(C)c1ccc(-c2c(-c3ccc(C#N)cc3)nc(OC[C@@H]3CCCN(C)C3)c3cncn23)cc1 [Example 46] | 50 to 100
7 | COC(=O)N(C)c1ccc(-c2c(-c3ccc(C#N)cc3)nc(OC[C@@H]3CCCN(C)C3)c3cncn23)cn1 [Example 49] | 100 to 500
8 | CN1C(=O)Cc2cc(-c3c(-c4ccc(C#N)cc4)nc(N4CCC(N(C)C)CC4)c4cncn34)ccc21 [Example 52, 4-[8-[4-(dimethylamino)piperidin-1-yl]-5-(1-methyl-2-oxo-2,3-dihydro-1H-indol-5-yl)imidazo[1,5-a]pyrazin-6-yl]benzonitrile] | 50 to 100
9 | CN(C)C1CCN(c2nc(-c3ccc(C#N)cc3)c(-c3cnc4cccnc4c3)n3cncc23)CC1 [Example 55, 4-[8-[4-(dimethylamino)piperidin-1-yl]-5-(1,5-naphthyridin-3-yl)imidazo[1,5-a]pyrazin-6-yl]benzonitrile] | 50 to 100
10 | CN1CCC[C@@H](COc2cc(-c3ccc(C#N)cc3)c(-c3cnc4cccnc4c3)n3cncc23)C1 [Example 59, (R)-4-(8-((1-methylpiperidin-3-yl)methoxy)-5-(1,5-naphthyridin-3-yl)imidazo[1,5-a]pyridin-6-yl)benzonitrile] | 100 to 500
11 | CN1CCC[C@@H](COc2cc(-c3ccc(C#N)cc3)c(-c3cnc4ccoc4c3)n3cncc23)C1 [Example 60, (R)-4-(5-(furo[3,2-b]pyridin-6-yl)-8-((1-methylpiperidin-3-yl)methoxy)imidazo[1,5-a]pyridin-6-yl)benzonitrile] | 50 to 100
12 | CN1CCC[C@@H](COc2cc(-c3ccc(C#N)cc3)c(-c3cnc4c(c3)CCCO4)n3cncc23)C1 [Example 61, (R)-4-(5-(3,4-dihydro-2H-pyrano[2,3-b]pyridin-6-yl)-8-((1-methylpiperidin-3-yl)methoxy)imidazo[1,5-a]pyridin-6-yl)benzonitrile] | 50 to 100
13 | CCN1CCC[C@@H](COc2cc(-c3ccc(C#N)cc3)c(-c3cnc4c(c3)ncn4C)n3cncc23)C1 [Example 66, (R)-4-(8-((1-ethylpiperidin-3-yl)methoxy)-5-(3-methyl-3H-imidazo[4,5-b]pyridin-6-yl)imidazo[1,5-a]pyridin-6-yl)benzonitrile] | 50 to 100
14 | CCN1CCC[C@@H](COc2cc(-c3ccc(C#N)cc3)c(-c3cnc4c(c3)CCCO4)n3cncc23)C1 [Example 68, (R)-4-(5-(3,4-dihydro-2H-pyrano[2,3-b]pyridin-6-yl)-8-((1-ethylpiperidin-3-yl)methoxy)imidazo[1,5-a]pyridin-6-yl)benzonitrile] | 50 to 100
15 | COc1ncc(-c2c(-c3ccc(C#N)cc3)cc(OC[C@@H]3CCCN(C)C3)c3cncn23)cc1N [Example 69, (R)-4-(5-(5-amino-6-methoxypyridin-3-yl)-8-((1-methylpiperidin-3-yl)methoxy)imidazo[1,5-a]pyridin-6-yl)benzonitrile] | 50 to 100
16 | Cc1ncc(-c2c(-c3ccc(C#N)cc3)nc(OC[C@@H]3CCCN(C)C3)c3cncn23)cc1F [Example 88, 4-(5-(5-fluoro-6-methylpyridin-3-yl)-8-{[(3R)-1-methylpiperidin-3-yl]methoxy}imidazo[1,5-a]pyrazin-6-yl)benzonitrile] | 50 to 100
17 | CN(C)C1CCN(c2nc(-c3ccc(C#N)cc3)c(-c3cnc4ccoc4c3)n3cncc23)CC1 [Example 104, 4-(8-(4-(dimethylamino)piperidin-1-yl)-5-(furo[3,2-b]pyridin-6-yl)imidazo[1,5-a]pyrazin-6-yl)benzonitrile] | 50 to 100
18 | CCN1CCC[C@@H](COc2nc(-c3ccc(C#N)cc3)c(-c3ccc4c(c3)CC(=O)N4C)n3cncc23)C1 [Example 110, 4-[8-{[(3R)-1-ethylpiperidin-3-yl]methoxy}-5-(1-methyl-2-oxo-2,3-dihydro-1H-indol-5-yl)imidazo[1,5-a]pyrazin-6-yl]benzonitrile] | 50 to 100
19 | CN(C)[C@H]1CCN(c2nc(-c3ccc(C#N)cc3)c(-c3ccc4c(c3)oc(=O)n4C)n3cncc23)C1 [Example 112, (S)-4-(8-(3-(dimethylamino)pyrrolidin-1-yl)-5-(3-methyl-2-oxo-2,3-dihydrobenzo[d]oxazol-6-yl)imidazo[1,5-a]pyrazin-6-yl)benzonitrile] | 50 to 100
20 | CCn1nnc2cc(-c3c(-c4ccc(C#N)cc4)cc(OC[C@@H]4CCCN(C)C4)c4cncn34)cnc21 [Example 117, 4-(5-(3-ethyl-3H-[1,2,3]triazolo[4,5-b]pyridin-6-yl)-8-{[(3R)-1-methylpiperidin-3-yl]methoxy}imidazo[1,5-a]pyridin-6-yl)benzonitrile] | 50 to 100
21 | CC(O)CN1CCC[C@@H](COc2cc(-c3ccc(C#N)cc3)c(-c3cnc4c(c3)OCCO4)n3cncc23)C1 (stereo partly drawn) [Example 118, 4-(5-(2,3-dihydro[1,4]dioxino[2,3-b]pyridin-7-yl)-8-{[(3R)-1-(2-hydroxypropyl)piperidin-3-yl]methoxy}imidazo[1,5-a]pyridin-6-yl)benzonitrile] | 50 to 100
22 | CC(O)CN1CCC[C@@H](COc2cc(-c3ccc(C#N)cc3)c(-c3cnc4ccoc4c3)n3cncc23)C1 (stereo partly drawn) [Example 119, 4-(5-(furo[3,2-b]pyridin-6-yl)-8-(((3R)-1-(2-hydroxypropyl)piperidin-3-yl)methoxy)imidazo[1,5-a]pyridin-6-yl)benzonitrile] | 50 to 100
23 | CC(O)c1c(F)cc(-c2c(-c3ccc(C#N)cc3)cc(OC[C@@H]3CCCN(C)C3)c3cncn23)cc1F (stereo partly drawn) [Example 124, 4-(5-[3,5-difluoro-4-(1-hydroxyethyl)phenyl]-8-{[(3R)-1-methylpiperidin-3-yl]methoxy}imidazo[1,5-a]pyridin-6-yl)benzonitrile] | 50 to 100
